system: Helminthosporium gram; assay: not given; details: 20 g active agent per 100 kg; about 5 weeks

SMILES | % activity [%]
C[S+]([O-])c1nnc(C(=O)N2CCC2)s1 (centres unmarked) [5-methylsulfinyl-1,3,4-thiadiazole-2-carboxylic acid-N,N-trimethylenamide] | 95

same assay, conditions: 50 g active agent per 100 kg; about 5 weeks

SMILES | % activity [%]
C[S+]([O-])c1nnc(C(=O)N2CCC2)s1 (centres unmarked) [5-methylsulfinyl-1,3,4-thiadiazole-2-carboxylic acid-N,N-trimethylenamide] | 100
CCC(C)S(=O)(=O)c1nnc(C(N)=O)s1 (centres unmarked) [5-sec.-butylsulfonyl-1,3,4-thiadiazole-2-carboxamide] | 97

system: Helminthosporium gramineum; assay: Seed treatment in open field tests for infestation by Helminthosporium gramineum (barley); format: in vivo; details: summer barley; 50 g active agent/100 kg barley; about 3 months
Protocol: Seed treatment in open field tests for infestation by Helminthosporium gramineum
The active agents were used in the form of pulverulent compositions. After about 8 months in case of winter barley and after about 3 months in case of summer barley the infested plants were counted and the activity was calculated by the formula [formula]

SMILES | % activity [%]
CCC(C)S(=O)(=O)c1nnc(C(N)=O)s1 (centres unmarked) [5-sec.-butylsulfonyl-1,3,4-thiadiazole-2-carboxamide] | 94

same assay, conditions: summer barley; 200 g active agent/100 kg barley; about 3 months

SMILES | % activity [%]
CCS(=O)(=O)c1nnc(C(=O)NC2CC2)s1 [5-ethylsulfonyl-1,3,4-thiadiazole-2-carboxylic acid-cyclopropylamide] | 100

system: Tilletia caries; assay: Treatment of oat seeds infested with Tilletia caries (spore germination); format: in vivo; details: 10 g active agent per 100 kg

SMILES | % activity [%]
CCS(=O)(=O)c1nnc(C(=O)NC2CC2)s1 [5-ethylsulfonyl-1,3,4-thiadiazole-2-carboxylic acid-cyclopropylamide] | 85

same assay, conditions: 20 g active agent per 100 kg

SMILES | % activity [%]
CCS(=O)(=O)c1nnc(C(=O)NC2CC2)s1 [5-ethylsulfonyl-1,3,4-thiadiazole-2-carboxylic acid-cyclopropylamide] | 100
C[S+]([O-])c1nnc(C(=O)N2CCC2)s1 (centres unmarked) [5-methylsulfinyl-1,3,4-thiadiazole-2-carboxylic acid-N,N-trimethylenamide] | 96
CS(=O)(=O)c1nnc(C(=O)N2CCC2)s1 [5-methylsulfonyl-1,3,4-thiadiazole-2-carboxylic acid-N,N-trimethylenamide] | 99

same assay, conditions: 50 g active agent per 100 kg

SMILES | % activity [%]
CCS(=O)(=O)c1nnc(C(=O)NC2CC2)s1 [5-ethylsulfonyl-1,3,4-thiadiazole-2-carboxylic acid-cyclopropylamide] | 100
C[S+]([O-])c1nnc(C(=O)N2CCC2)s1 (centres unmarked) [5-methylsulfinyl-1,3,4-thiadiazole-2-carboxylic acid-N,N-trimethylenamide] | 100
CS(=O)(=O)c1nnc(C(=O)N2CCC2)s1 [5-methylsulfonyl-1,3,4-thiadiazole-2-carboxylic acid-N,N-trimethylenamide] | 100

system: Plasmopara viticola; assay: Prophylactic leaf treatment of grapevines in the hothouse against Plasmopara viticola; format: in vivo; details: concentration of active agent 0.001 (unit not given)
Protocol: Effects of prophylactic leaf treatment of grapevines in the hothouse against Plasmopara viticola
Young grapevine plants having from 5 to 8 leaves were sprayed dripping wet with the concentrations of active agents stated in the table below. After drying of the spray deposit the leaves were sprayed with an aqueous suspension of sporangia of the fungus (about 20,000 per ml); the spraying was applied to the bottom side of the leaves. The plants were then immediately incubated in a hothouse at a temperature of 22° to 24° C. and at maximum water saturation in the atmosphere. Beginning with the second day the humidity of the air was reduced for 3 to 4 days to normal level (30 to 70% saturation) and was then maintained for another day on the level of full saturation. Subsequently, the percentage portion of the fungus infested surface of each leaf was noted and the average per treatment was calculated in order to determine the fungicidal activity. This was done on the basis of the following formula: [formula]
The active compounds were applied in the form of a 20% concentration spray powder.

SMILES | % activity [%]
C[S+]([O-])c1nnc(C(=O)N2CCC2)s1 (centres unmarked) [5-methylsulfinyl-1,3,4-thiadiazole-2-carboxylic acid-N,N-trimethylenamide] | 86

same assay, conditions: concentration of active agent 0.005 (unit not given)

SMILES | % activity [%]
C[S+]([O-])c1nnc(C(=O)N2CCC2)s1 (centres unmarked) [5-methylsulfinyl-1,3,4-thiadiazole-2-carboxylic acid-N,N-trimethylenamide] | 93
CS(=O)(=O)c1nnc(C(=O)N2CCC2)s1 [5-methylsulfonyl-1,3,4-thiadiazole-2-carboxylic acid-N,N-trimethylenamide] | 84

same assay, conditions: concentration of active agent 0.025 (unit not given)

SMILES | % activity [%]
C[S+]([O-])c1nnc(C(=O)N2CCC2)s1 (centres unmarked) [5-methylsulfinyl-1,3,4-thiadiazole-2-carboxylic acid-N,N-trimethylenamide] | 94
CS(=O)(=O)c1nnc(C(=O)N2CCC2)s1 [5-methylsulfonyl-1,3,4-thiadiazole-2-carboxylic acid-N,N-trimethylenamide] | 90

system: Pythium ultimum; assay: Threshold concentration test for use of the compounds against Pythium ultimum (infested soil, garden peas); format: in vivo; set-up: key to root evaluation (1-4): 4: white roots without fungous necrosis; 3: white roots, minor fungous necrosis; 2: brown roots, already more pronounced fungous necrosis; 1: heavy fungous necrosis, roots rotted; details: 20 mg/l soil; 3 weeks
Protocol: Threshold concentration test for use of the compounds against Pythium ultimum
A 20% concentration of certain pulverulent active agents as listed below were mixed in uniform manner into a soil which had been heavily infested by Pythium ultimum. The thus treated soil was then placed into clay dishes of a capacity of 0.5 l earth. Without any intermediate time lapse 20 grain of garden peas (Pisum sativum L. convar. medullare Alef.) of the type "Wunder von Kelvedon" were then seeded into each of the clay dishes. After a cultivation period of three weeks at 20° to 24° C. in a hothouse the number of sound peas was determined and a root evaluation was carried out. The active agents amounts and results appear from the following table.
The root evaluation was carried out on a scale from 1 to 4 as follows: […]

SMILES | root evaluation (1-4)
C[S+]([O-])c1nnc(C(=O)N2CCC2)s1 (centres unmarked) [5-methylsulfinyl-1,3,4-thiadiazole-2-carboxylic acid-N,N-trimethylenamide] | 2
CS(=O)(=O)c1nnc(C(=O)N2CCC2)s1 [5-methylsulfonyl-1,3,4-thiadiazole-2-carboxylic acid-N,N-trimethylenamide] | 4

same assay, conditions: 20 mg/l soil; 20 grains per dish; 3 weeks at 20-24° C.

SMILES | number of sound peas
C[S+]([O-])c1nnc(C(=O)N2CCC2)s1 (centres unmarked) [5-methylsulfinyl-1,3,4-thiadiazole-2-carboxylic acid-N,N-trimethylenamide] | 12
CS(=O)(=O)c1nnc(C(=O)N2CCC2)s1 [5-methylsulfonyl-1,3,4-thiadiazole-2-carboxylic acid-N,N-trimethylenamide] | 19

same assay, conditions: 40 mg/l soil; 3 weeks

SMILES | root evaluation (1-4)
C[S+]([O-])c1nnc(C(=O)N2CCC2)s1 (centres unmarked) [5-methylsulfinyl-1,3,4-thiadiazole-2-carboxylic acid-N,N-trimethylenamide] | 4
CS(=O)(=O)c1nnc(C(=O)N2CCC2)s1 [5-methylsulfonyl-1,3,4-thiadiazole-2-carboxylic acid-N,N-trimethylenamide] | 4

same assay, conditions: 40 mg/l soil; 20 grains per dish; 3 weeks at 20-24° C.

SMILES | number of sound peas
C[S+]([O-])c1nnc(C(=O)N2CCC2)s1 (centres unmarked) [5-methylsulfinyl-1,3,4-thiadiazole-2-carboxylic acid-N,N-trimethylenamide] | 16
CS(=O)(=O)c1nnc(C(=O)N2CCC2)s1 [5-methylsulfonyl-1,3,4-thiadiazole-2-carboxylic acid-N,N-trimethylenamide] | 20

same assay, conditions: 80 mg/l soil; 3 weeks

SMILES | root evaluation (1-4)
C[S+]([O-])c1nnc(C(=O)N2CCC2)s1 (centres unmarked) [5-methylsulfinyl-1,3,4-thiadiazole-2-carboxylic acid-N,N-trimethylenamide] | 4
CS(=O)(=O)c1nnc(C(=O)N2CCC2)s1 [5-methylsulfonyl-1,3,4-thiadiazole-2-carboxylic acid-N,N-trimethylenamide] | 4

same assay, conditions: 80 mg/l soil; 20 grains per dish; 3 weeks at 20-24° C.

SMILES | number of sound peas
C[S+]([O-])c1nnc(C(=O)N2CCC2)s1 (centres unmarked) [5-methylsulfinyl-1,3,4-thiadiazole-2-carboxylic acid-N,N-trimethylenamide] | 19
CS(=O)(=O)c1nnc(C(=O)N2CCC2)s1 [5-methylsulfonyl-1,3,4-thiadiazole-2-carboxylic acid-N,N-trimethylenamide] | 20
